According to patent US20040006120A1, “Use of histamine h3 receptor inverse agonists for the control of appetite and treatment of obesity” (priority 2003, published 2004):
Marks after values point to notes of the source that are not given here.

Legend:
[1] = biological target: T1, H3 receptor occupancy in the brain (Rattus norvegicus, UniProt Q9QYN8); experiment: Ex vivo binding: H3 receptor occupancy in the brain after intraperitoneal administration; conditions: following intraperitoneal administration
T1 construct: H3 receptor occupancy in the brain following intraperitoneal administration; from tissue
T1 sequence (Q9QYN8 whole entry): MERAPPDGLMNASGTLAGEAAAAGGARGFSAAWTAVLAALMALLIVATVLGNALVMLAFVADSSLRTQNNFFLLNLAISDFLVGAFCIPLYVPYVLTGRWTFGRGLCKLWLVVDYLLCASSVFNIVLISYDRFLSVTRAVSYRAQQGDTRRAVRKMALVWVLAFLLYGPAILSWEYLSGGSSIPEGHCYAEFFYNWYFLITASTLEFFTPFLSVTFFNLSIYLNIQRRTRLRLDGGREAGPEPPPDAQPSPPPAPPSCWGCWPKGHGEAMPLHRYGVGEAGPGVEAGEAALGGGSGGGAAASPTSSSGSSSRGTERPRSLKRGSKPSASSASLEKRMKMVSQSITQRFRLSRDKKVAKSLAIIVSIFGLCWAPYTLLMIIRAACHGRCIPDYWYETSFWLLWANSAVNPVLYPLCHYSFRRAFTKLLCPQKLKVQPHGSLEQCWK
Source text: (§1) The percent reduction in food intake by rats two hours after intraperitoneal administration of each compound is shown in Table 5. […] In Table 5, * indicates a significant decrease in food intake compared to the vehicle-treated rats (t-test, p<0.05). The ex vivo binding values in Table 5 represent the drug dose required to obtain ½-maximal H3 receptor occupancy in the brain following intraperitoneal administration. The dose values shown in Table 5 represent the dosage of drug utilized during the food intake studies. In all cases, the tested dose exceeded the amount needed to obtain ½-maximal H3 receptor occupancy in the brain.

[2] = test system: food consumption by adult Sprague-Dawley rats; experiment: Food intake by adult Sprague-Dawley rats; format: in vivo, rat; conditions: for Decrease in Food Intake (%): two hours following the onset of the dark cycle
Experimental: The compounds summarized in Table 3 were examined for their ability to suppress food consumption by adult Sprague-Dawley rats. Male Sprague Dawley rats were purchased from Harlan Laboratories of Indianapolis, Ind. Rats were housed one per cage and maintained on a 12 hour light/dark schedule (lights-out at 12:30 p.m.) with ad libitum access to powdered Teklad Mouse/Rat Diet 7012 (available from Harlan Laboratories of Indianapolis, Ind.) and water. Rats were acclimated to laboratory conditions and food for 1 to 2 weeks prior to initiating food intake studies. On the day of experiments, test compounds were solubilized or suspended in vehicle/carrier and administered to rats (i.p. or p.o.) 30 to 60 minutes prior to the onset of the dark cycle. Food intake was determined at 1, 2, 4, and 24 hours following the onset of the dark cycle. Alternatively, rats were fasted (water provided) for 24 hours prior to evaluating the effects of compounds on food intake. For these studies, compounds or vehicle/carrier were administered and rats were placed in standard small animal metabolism chambers with ad libitum access to powdered Teklad Mouse/Rat Diet 7012 and water. Food intake was determined at 2 and 4 hours following the onset of feeding.
Data is cumulative food intake in grams, mean ± sem. In the table, * indicates a significant decrease in food intake compared to the vehicle-treated rats (t-test, p<0.05).
as §1

Histamine H3 receptor = biological target: T2, Histamine H3 receptor (Rattus norvegicus, UniProt Q9QYN8); experiment: Histamine H3 receptor binding in rat cerebral cortical membranes with [3H]-Nα-methylhistamine, with and without GTPγS; conditions: in words
T2 construct: The cerebral cortical tissues were harvested and frozen on dry ice; from tissue; host or cells: cerebral cortex of male Sprague-Dawley rats (membrane preparation)
T2 sequence (Q9QYN8 whole entry): as above
Experimental: A histamine H3 receptor binding analysis to determine the affinity of various imidazole derivatives for G-protein uncoupled receptors was performed as follows. Male Sprague-Dawley rats were purchased from Harlan Laboratories of Indianapolis, Ind. and housed two per cage on a 12 hour light/dark schedule with ad libitum access to Teklad Mouse/Rat Diet 7012 (available from Harlan Laboratories of Indianapolis, Ind.) and water in accordance with the Animal Welfare Act of 1994 and amendments. Animals were acclimated to laboratory conditions for a minimum of one week prior to tissue harvesting.
Animals were anesthetized by NO2 inhalation and euthanized by rapid decapitation. The cerebral cortical tissues were harvested and frozen on dry ice. Rat corticies were mechanically homogenized using a Tissue Tearer in 25 mM Tris buffer (pH 7.5 at 4° C.) containing: EDTA (10 mM), phenylmethylsulfonyl fluoride (0.1 mM), chymostatin and leupeptin (each 0.2 mg/50 mL). The homogenate was centrifuged in a Sorvall centrifuge at 40,000×g for 30 minutes. The pellet was re-suspended in 25 ml water and lysed on ice for 30 minutes. The homogenate was then re-centrifuged and the membrane lysis was repeated. […] Protein concentrations were determined using the Coomassie Plus Protein Assay (available from Pierce of Rockford, Ill.). […]

Row | SMILES | Ex Vivo Binding: drug dose required to obtain ½-maximal H3 receptor occupancy in the brain [1] | Decrease in Food Intake (%) ([2]; Dose 10, intraperitoneal) | other results
1 | O=C(N[C@@H]1C[C@H]1c1c[nH]cn1)OCCC1CCCCC1 [Compound 1, 4-((1R,2R)-trans-2-(O(2-cyclohexylethyl)carboxamido)cyclopropyl)imidazole] | 31 ± 1.3 mg/kg | 32.6 ± 4.3* % | 
2 | Fc1ccc(C(OCCCc2c[nH]cn2)c2ccc(F)cc2)cc1 [Compound 8, 3-(1H-imidazol-4-yl)propyl-di(p-fluorophenyl)-methylether] | 5.6 ± 0.12 mg/kg | 56.6 ± 8.3* % | 
3 | CC(C)(C)CCOC(=O)N[C@@H]1C[C@H]1c1c[nH]cn1 [Compound 9, 4-((1R,2R)-trans-2-(O-(3,3-dimethyl-but-1-yl)carboxamido)cyclopropyl)imidazole] | 3.7 ± 0.4 mg/kg | −25.1 ± 3.8% | 
4 | O=C(CCCCC1CCCCC1)N1CCC(c2c[nH]cn2)CC1 [Compound 5, 4-(N-(5-cyclohexylpentan-1-one-1-yl)piperidin-4-yl)imidazole] | 8.0 ± 1.3 mg/kg | 67.6 ± 9.6* % | 
5 | N[C@H](/C=C\CCc1c[nH]cn1)CC1CCCCC1 [Compound 4, 4-(((5S)(3Z)-5-amino-6-cyclohexyl)hex-3-en-1-yl)imidazole] | ˜15 mg/kg |  | Decrease in Food Intake (%) ([2]; Dose 20, intraperitoneal): 53.9 ± 11.1* %
6 | O=C(N[C@@H]1C[C@H]1c1c[nH]cn1)OCC1CCCCC1 [Compound 3, 4-((1R,2R)-trans-2-(O-(2-cyclohexylmethyl)carboxamido)cyclopropyl)imidazole] | 2.6 ± 1.3 mg/kg | 36.4 ± 3.3* % | duration of significant reduction of food consumption ([2]; single administration, 10 mg/kg i.p.): up to 24 hours
7 | CC(C)(C)CCC#C[C@@H]1C[C@H]1c1c[nH]cn1 [Compound 6, (1R,2R)-trans-4-(2-(5,5-dimethylhex-1-ynyl)cyclopropyl)imidazole] | 0.08 ± 0.03 mg/kg |  | Decrease in Food Intake (%) ([2]; Dose 1, intraperitoneal): −4.6 ± 0.8%
8 | C(=C/CCC1CCCCC1)/CCc1c[nH]cn1 [Compound 2, (3Z)-4-(6-cyclohexylhex-3-en-1-yl)imidazole] | 0.92 ± 0.01 mg/kg |  | binding to GTPγS-treated cortical membrane preparation compared with non-treated preparation (Histamine H3 receptor): relatively little difference; Decrease in Food Intake (%) ([2]; Dose 3, intraperitoneal): 5.5 ± 0.8%
9 | O=C(N[C@@H]1C[C@H]1c1c[nH]cn1)OCc1c(Cl)cccc1Cl [Compound 7, 4-((1R,2R)-trans-2-(O-(2,6-dichlorophenylmethyl)carboxamido)cyclopropyl)imidazole] | 2.9 ± 1.3 mg/kg | 0.8 ± 0.0% | 
